Data taken from US7994121B2, “Stable analogs of peptide and polypeptide therapeutics” (Trustees of Tufts College, priority 2003, dated 2011).
Entries after “also recorded” stand apart in the source; their conditions may differ. Like-named read-outs stand apart in the source and are kept apart here. Square brackets hold non-standard residues; d marks the D form. Ends that are not written are not given here. Peptide text beside a SMILES is read from it. Tle = CC(C)(C)[C@H](N)C(=O)O

Assays:
human DPP IV = human DPP IV (Homo sapiens, UniProt P27487); assay: Cleavage/degradation by DPP IV, HPLC/MS; assay type: in vitro ADME; details: for resistance to cleavage by DPP IV: in comparison to native GLP-1; for degradation by human DPP IV: two hours of treatment with human DPP IV, versus untreated peptide
Sequence of human DPP IV (P27487 whole entry): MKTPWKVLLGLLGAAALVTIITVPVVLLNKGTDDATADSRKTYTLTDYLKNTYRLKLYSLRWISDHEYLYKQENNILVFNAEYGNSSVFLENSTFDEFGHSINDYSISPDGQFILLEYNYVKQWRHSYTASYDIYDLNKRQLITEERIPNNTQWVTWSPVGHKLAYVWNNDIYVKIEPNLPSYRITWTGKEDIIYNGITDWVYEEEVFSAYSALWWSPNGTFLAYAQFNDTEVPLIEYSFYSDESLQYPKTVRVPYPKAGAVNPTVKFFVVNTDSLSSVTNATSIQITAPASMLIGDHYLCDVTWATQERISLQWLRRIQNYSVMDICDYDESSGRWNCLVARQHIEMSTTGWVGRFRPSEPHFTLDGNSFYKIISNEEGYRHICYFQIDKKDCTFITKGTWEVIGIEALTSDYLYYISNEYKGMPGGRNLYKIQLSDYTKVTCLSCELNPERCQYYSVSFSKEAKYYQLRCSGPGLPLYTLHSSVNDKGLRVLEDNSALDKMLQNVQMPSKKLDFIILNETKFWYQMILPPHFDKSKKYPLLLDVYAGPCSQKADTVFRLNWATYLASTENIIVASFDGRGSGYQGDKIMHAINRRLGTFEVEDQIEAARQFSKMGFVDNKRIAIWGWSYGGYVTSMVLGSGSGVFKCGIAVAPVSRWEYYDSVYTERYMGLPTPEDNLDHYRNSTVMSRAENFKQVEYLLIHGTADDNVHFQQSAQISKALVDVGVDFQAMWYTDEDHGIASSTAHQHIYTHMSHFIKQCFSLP
Procedure: However, it is most desirable to produce peptide analogs that are not only resistant to proteolysis, but also retain all or much of the biological activity of the native peptide. Accordingly, we conducted a series of experiments to ascertain whether these GLP-1 analogs which display robust resistance to degradation by DPP IV also retain biological activities of native GLP-1
TLE-modified GLP-1 analog was treated with human DPP IV for two hours, and degradation of the analog over time was compared to that of analog in the absence of DPP IV.

thrombin = thrombin (Homo sapiens, UniProt P00734); assay: Thrombin digestion of model peptide, C18 HPLC/MS; assay type: in vitro ADME; details: 4 hours at 23° C., 10 nM thrombin, 0.1 M HEPES pH 8
Procedure: Briefly, the peptide […] (SEQ ID NO: 31) is a model substrate for thrombin. Thrombin cleaves after the arginine residue. Accordingly, the serine residue of this model peptide is the P′1 positions. WALAPR^↓SFA
To compare digestion of the model peptide analog by thrombin with that of the native model peptide, peptides were digested for 4 hours at 23° C. with 10 nM thrombin in 0.1 M HEPES pH 8, 0.14 M NaCl, 5 mM CaCl2, 0.5% PEG6000. Following digestion, C18 reverse phase HPLC of the digests was compared to the undigested peptides, and the mass spectra of the major peaks are shown for each chromatogram in FIG. 7.

[1] = cited from earlier work

Compound: CC[C@H](C)[C@H](NC(=O)[C@H](Cc1ccccc1)NC(=O)[C@H](CCC(=O)O)NC(=O)[C@H](CCCCN)NC(=O)[C@H](C)NC(=O)[C@H](C)NC(=O)[C@H](CCC(N)=O)NC(=O)CNC(=O)[C@H](CCC(=O)O)NC(=O)[C@H](CC(C)C)NC(=O)[C@H](Cc1ccc(O)cc1)NC(=O)[C@H](CO)NC(=O)[C@H](CO)NC(=O)[C@@H](NC(=O)[C@H](CC(=O)O)NC(=O)[C@H](CO)NC(=O)[C@@H](NC(=O)[C@H](Cc1ccccc1)NC(=O)[C@@H](NC(=O)CNC(=O)C(NC(=O)[C@H](C)NC(=O)[C@@H](N)Cc1c[nH]cn1)C(C)(C)C(=O)O)[C@@H](C)O)[C@@H](C)O)C(C)C)C(=O)N[C@@H](C)C(=O)N[C@@H](Cc1c[nH]c2ccccc12)C(=O)N[C@@H](CC(C)C)C(=O)N[C@H](C(=O)N[C@@H](CCCCN)C(=O)NCC(=O)N[C@@H](CCCNC(=N)N)C(=O)NCC(=O)O)C(C)C (stereo partly drawn) [GLP-1 (3DMA)]
- resistance to cleavage by DPP IV (human DPP IV): resistant to cleavage by DPP IV

Compound: CC(C)C[C@H](NC(=O)[C@H](C)NC(=O)[C@@H](N)Cc1c[nH]c2ccccc12)C(=O)N[C@@H](C)C(=O)N1CCC[C@H]1C(=O)N[C@@H](CCCNC(=N)N)C(=O)N[C@H](C(=O)N[C@@H](Cc1ccccc1)C(=O)N[C@@H](C)C(=O)O)C(C)(C)C [TLE substituted peptide analog, WALAPRXFA] (H-WALAPR[Tle]FA-OH)
- cleavage by thrombin (thrombin): not cleaved by thrombin

Compound: CC[C@H](C)[C@H](NC(=O)[C@H](Cc1ccccc1)NC(=O)[C@H](CCC(=O)O)NC(=O)[C@H](CCCCN)NC(=O)[C@H](C)NC(=O)[C@H](C)NC(=O)[C@H](CCC(N)=O)NC(=O)CNC(=O)[C@H](CCC(=O)O)NC(=O)[C@H](CC(C)C)NC(=O)[C@H](Cc1ccc(O)cc1)NC(=O)[C@H](CO)NC(=O)[C@H](CO)NC(=O)[C@@H](NC(=O)[C@H](CC(=O)O)NC(=O)[C@H](CO)NC(=O)[C@@H](NC(=O)[C@H](Cc1ccccc1)NC(=O)[C@@H](NC(=O)CNC(=O)[C@@H](NC(=O)[C@H](C)NC(=O)[C@@H](N)Cc1c[nH]cn1)C(C)(C)C)[C@@H](C)O)[C@@H](C)O)C(C)C)C(=O)N[C@@H](C)C(=O)N[C@@H](Cc1c[nH]c2ccccc12)C(=O)N[C@@H](CC(C)C)C(=O)N[C@H](C(=O)N[C@@H](CCCCN)C(=O)NCC(=O)N[C@@H](CCCNC(=N)N)C(=O)NCC(=O)O)C(C)C [TLE-modified GLP-1]
- degradation by human DPP IV (human DPP IV): resistant to degradation by DPP IV

Compound: GLP-1 (BM): GLP1(7-37) analog wherein the P′1 glutamic acid is substituted by 3-butyl-methyl-glycine (HAXGTFTSDVSSYLEGQAAKEFIAWLVKGRG; non-natural residues)
- resistance to cleavage by DPP IV (human DPP IV): resistant to cleavage by DPP IV

Compound: GLP-1: exogenous GLP-1 given subcutaneously or intravenously to subjects (Deacon et al.); metabolite co-elutes with GLP-I(9-36) amide
- degradation of infused GLP-1 ([1]; intravenous infusion): extensively degraded
- metabolite share of the increase in plasma immunoreactivity (CO2H-terminal RIA) ([1]; thirty minutes after subcutaneous GLP-1, diabetic patients (n is 8)): 88.5+1.9%
- metabolite share of the increase in plasma immunoreactivity (CO2H-terminal RIA) ([1]; thirty minutes after subcutaneous GLP-1, healthy subjects (n=8)): 78.4+3.2%

Compound: HAE GTFTSDVSSY LEGQAAKEFI AWLVKGRG [GLP-1 (7-37)]
- degradation by human DPP IV (human DPP IV): time dependent degradation; also recorded: time dependent loss of peptide

Compound: WALAPRSFA [unmodified peptide]
- cleavage by thrombin (thrombin): efficiently cleaved by thrombin
